# Tests used:
# [1] = biological target: T1, N-terminally FLAG-tagged PARP2 (amino acids 1-583) (Homo sapiens, UniProt Q9UGN5); experiment: PARP2 probe displacement HTRF assay; format: binding; conditions: binned Kd, probe displacement HTRF
# T1 construct: N-terminally FLAG-tagged PARP2 (amino acids 1-583)
# Experimental: Data analysis was performed identical as for PARP1.
# [2] = biological target: T2, full length N-terminally FLAG-tagged PARP1 (Homo sapiens, UniProt P09874); experiment: PARP1 probe displacement HTRF assay; conditions: probe displacement HTRF; for Selectivity: PARP1 over PARP2, ratio Kd (PARP2)/Kd (PARP1); for Kd: read-out: PARP1 HTRF, binned Kd
# [3] = biological target: T2, full length N-terminally FLAG-tagged PARP1; experiment: PARP1 biochemical DELFIA assay (auto-PARylation); design: recombinant full length human N-terminally FLAG-tagged PARP1; conditions: binned IC50, biochemical auto-PARylation assay
# T1 sequence (Q9UGN5 whole entry, the tested form may be a part): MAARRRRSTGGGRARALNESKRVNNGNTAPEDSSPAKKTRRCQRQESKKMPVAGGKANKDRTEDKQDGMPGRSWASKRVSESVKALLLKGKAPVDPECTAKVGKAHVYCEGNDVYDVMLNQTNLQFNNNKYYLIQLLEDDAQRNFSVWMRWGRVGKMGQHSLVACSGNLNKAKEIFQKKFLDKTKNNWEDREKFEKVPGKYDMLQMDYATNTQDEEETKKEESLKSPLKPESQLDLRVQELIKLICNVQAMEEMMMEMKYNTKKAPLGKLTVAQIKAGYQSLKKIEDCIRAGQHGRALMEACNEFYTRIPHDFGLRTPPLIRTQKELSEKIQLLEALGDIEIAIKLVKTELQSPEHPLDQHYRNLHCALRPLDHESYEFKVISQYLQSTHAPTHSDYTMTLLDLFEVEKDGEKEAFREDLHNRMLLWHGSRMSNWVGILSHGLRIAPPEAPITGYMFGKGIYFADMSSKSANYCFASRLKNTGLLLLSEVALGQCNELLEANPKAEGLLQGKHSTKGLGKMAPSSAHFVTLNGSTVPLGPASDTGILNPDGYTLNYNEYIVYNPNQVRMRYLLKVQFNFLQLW
# T2 sequence (P09874 whole entry): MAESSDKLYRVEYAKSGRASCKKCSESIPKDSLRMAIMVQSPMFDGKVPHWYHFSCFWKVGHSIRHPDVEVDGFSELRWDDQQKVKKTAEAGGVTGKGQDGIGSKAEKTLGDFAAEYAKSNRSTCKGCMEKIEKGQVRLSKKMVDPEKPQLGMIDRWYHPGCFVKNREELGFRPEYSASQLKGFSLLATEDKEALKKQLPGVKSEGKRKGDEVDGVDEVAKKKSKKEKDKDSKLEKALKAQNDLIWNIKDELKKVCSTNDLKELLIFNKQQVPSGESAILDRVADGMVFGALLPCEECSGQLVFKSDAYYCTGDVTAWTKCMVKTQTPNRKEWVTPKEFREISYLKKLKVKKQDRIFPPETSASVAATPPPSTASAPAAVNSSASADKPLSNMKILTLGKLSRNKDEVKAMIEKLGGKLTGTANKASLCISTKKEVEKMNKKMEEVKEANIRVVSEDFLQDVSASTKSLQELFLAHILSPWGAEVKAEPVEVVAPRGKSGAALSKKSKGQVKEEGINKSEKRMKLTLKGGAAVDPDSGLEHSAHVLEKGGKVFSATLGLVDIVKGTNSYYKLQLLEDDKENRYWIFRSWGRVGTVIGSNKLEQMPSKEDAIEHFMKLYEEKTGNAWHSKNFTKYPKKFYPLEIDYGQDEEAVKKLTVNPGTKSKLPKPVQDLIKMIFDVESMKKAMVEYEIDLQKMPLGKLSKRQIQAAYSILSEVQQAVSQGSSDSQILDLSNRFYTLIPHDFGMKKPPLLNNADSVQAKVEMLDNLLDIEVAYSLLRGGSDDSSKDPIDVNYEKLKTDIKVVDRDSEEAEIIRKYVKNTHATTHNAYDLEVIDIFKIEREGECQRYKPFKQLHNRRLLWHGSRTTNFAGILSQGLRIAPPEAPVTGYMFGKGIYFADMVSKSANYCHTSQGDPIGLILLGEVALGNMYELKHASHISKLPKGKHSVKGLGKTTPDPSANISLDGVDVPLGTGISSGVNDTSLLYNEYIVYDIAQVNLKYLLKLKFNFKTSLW
Structure (SMILES),Kd [1] [nM],Selectivity [2],Kd [2] [nM],IC50 [3] [nM]
"CNC(=O)c1ccc(N2CCC(N3CCC(c4cc5ccc(F)cc5c(=O)[nH]4)C3)CC2)c(Cl)n1 (single isomer, unassigned) [Compound 223a]",100 to 1000,+++ (+++ indicate a value of at least 100),< 10,< 10
"CNC(=O)c1cc(C)c(N2CCC(N3CCC(c4nc5ccccc5c(=O)[nH]4)C3)CC2)c(C)n1 (single isomer, unassigned) [Compound 224a]",1000 to 10000,− (− indicates a value of less than 10),1000 to 10000,100 to 1000
"CNC(=O)c1cc(C)c(N2CCC(N3CCC(c4nc5ccccc5c(=O)[nH]4)C3)CC2)c(C)n1 (single isomer, unassigned) [Compound 224b]",1000 to 10000,− (− indicates a value of less than 10),100 to 1000,100 to 1000
"CNC(=O)c1ccc(N2CCC(N3CCC(c4nc5c(C)scc5c(=O)[nH]4)C3)CC2)cn1 (single isomer, unassigned) [Compound 232a]",100 to 1000,− (− indicates a value of less than 10),10 to 100,10 to 100
"CNC(=O)c1cc(Cl)c(N2CCC(N3CCC(c4cc5ccc(F)cc5c(=O)[nH]4)C3)CC2)cn1 (single isomer, unassigned) [Compound 236a]",100 to 1000,+ (+ indicates a value of 10 to less than 50),10 to 100,10 to 100
"CNC(=O)c1cc(Cl)c(N2CCC(N3CCC(c4cc5ccc(F)cc5c(=O)[nH]4)C3)CC2)cn1 (single isomer, unassigned) [Compound 236b]",10 to 100,+ (+ indicates a value of 10 to less than 50),< 10,< 10
"CCc1ccc(C2CCN(C3CCN(c4ccc(C(=O)NC)nc4Cl)CC3)C2)[nH]c1=O (single isomer, unassigned) [Compound 239a]",> 10000,+++ (+++ indicate a value of at least 100),< 10,< 10
"CNC(=O)c1ccc(N2CCC(N3CCC(c4ccc(CCOC)c(=O)[nH]4)C3)CC2)cn1 (single isomer, unassigned) [Compound 240a]",> 10000,++ (++ indicates a value of 50 to less than 100),10 to 100,10 to 100
"CNC(=O)c1ccc(N2CCC(N3CCC(c4ccc(CCOC)c(=O)[nH]4)C3)CC2)cn1 (single isomer, unassigned) [Compound 240b]",> 10000,− (− indicates a value of less than 10),1000 to 10000,1000 to 10000
"CNC(=O)c1ccc(N2CCC(N3CC4(c5nc6ccccc6c(=O)[nH]5)CCC3C4)CC2)cn1 (single isomer, unassigned) [Compound 245a]",100 to 1000,+++ (+++ indicate a value of at least 100),< 10,< 10
"CNC(=O)c1ccc(N2CCC(N3CC4(c5nc6ccccc6c(=O)[nH]5)CCC3C4)CC2)cn1 (single isomer, unassigned) [Compound 245b]",> 10000,+++ (+++ indicate a value of at least 100),10 to 100,10 to 100
"CCc1ccc(C2CCN(C3CCN(c4cnc(C(=O)NC)nc4C)CC3)C2)[nH]c1=O (single isomer, unassigned) [Compound 246a]",> 10000,+ (+ indicates a value of 10 to less than 50),100 to 1000,100 to 1000
"CCc1ccc(C2CCN(C3CCN(c4cnc(C(=O)NC)nc4C)CC3)C2)[nH]c1=O (single isomer, unassigned) [Compound 246b]",1000 to 10000,+++ (+++ indicate a value of at least 100),< 10,< 10
"CNC(=O)c1ccc(N2CCC(N3CCC(c4cc5cccc(OC)c5c(=O)[nH]4)C3)CC2)cn1 (single isomer, unassigned) [Compound 249a]",> 10000,− (− indicates a value of less than 10),1000 to 10000,1000 to 10000
